Here are results for one compound from patent US7700644B2, “Isoflavonoid dimers” (Novogen Research Pty Ltd, priority 2005, dated 2010).

A word on the IC50: it is the point on the concentration scale where inhibition reaches its midpoint.

For one data set, the system named is MM96L (Melanoma). Description: In vitro cytotoxicity, MTT proliferation assay, MM96L. Type of data set: cell-based, human. The following applies: Homo sapiens. Here is the method:
(§1) The human pancreatic cancer cell line, HPAC (CRL-2119) was routinely cultured in 1:1 mixture DMEM (Sigma) plus Ham's F12 (Sigma) medium containing HEPES (15 mM), insulin (0.002 mg/ml), transferrin (0.005 mg/ml), hydrocortisone, (40 ng/ml), epidermal growth factor (10 ng/ml). The ovarian cancer cell line CP70 was obtained as a gift from Dr. Gil Mor (Yale University) and cultured in a 1:1 mixture DMEM plus Ham's F12 medium, and SKOV-3 was purchased from ATCC and cultured in McCoy's 5a medium. The breast cancer cell line MDA-MB-468 cultured in Leibovitz's L-15 medium.
(§2) All cultures were supplemented with 10% FCS(CSL, Australia), penicillin (100 U/ml), streptomycin ([…]), L-glutamine (2 mM) and sodium bicarbonate (1.2 g/L), and cultured at 37° C. in a humidified atmosphere of 5% CO2. All remaining cell lines were purchased from ATCC (Maryland, USA) except where noted.
(§3) IC50 values were determined for each cell line. Cells were seeded in 96-well plates at an appropriate cell density as determined from growth kinetics analysis. NFFs were cultured for 5 days and RK-13s for 24 hrs in the absence and presence of the test compounds. Cell proliferation was assessed after the addition of 20 μl of 3-4,5 dimethylthiazol-2,5-diphenyl tetrazolium bromide (MTT, 2.5 mg/ml in PBS, Sigma) for 3-4 hrs at 37° C. according to manufacturer's instructions. IC50 values were calculated from semi-log plots of % of control proliferation on the y-axis against log dose on the x-axis.
On the technique in general: Formazan colour is commonly taken as a measure of viable cells.

In the next data set the test system is unstimulated splenocytes. Description: Murine splenocytes, 24 hour pre-incubation with compound then mitogenic stimulation. It is filed as cell-based, Male Skh-1 (hairless) mice. The following applies: 10 μM. Here is the method: Male Skh-1 (hairless) mice, six weeks old were killed by cervical dislocation. Single cell suspensions were made from their spleens and erythrocytes were lysed in buffer (0.14M NH4Cl, 17 mM Tris, pH 7.2). The remaining splenocytes were cultured in RPMI-1640 (Gibco) supplemented with 10% (v:v) FBS, 200 mM L-glutamine, penicillin/streptomycin and […] 2-mercaptoethanol. Splenocytes were added to triplicate wells containing either concanavalin A (ConA, Sigma-Aldrich—0.4 μg/well), lipopolysaccharide (LPS, Sigma-Aldrich—1 μg/well) or no mitogen, as well as 10 μM of either Compound 1 or Compound 2 in DMSO, or DMSO alone. Samples were analysed after a 3 day incubation at 37° C. in 5% CO2 in air. To assess cell numbers, methylthiazoletetrazolium (MTT) was added to each well, incubated for a further 4 hrs and then colour developed with 0.04N HCl in isopropanol (Mosmann 1983). Plates were read at 570 nm and 630 nm. The compounds were examined several times using different mice. For each assay, the effect of test compound was compared with that of vehicle control, and the results compared using a student's t test (Prism). Statistically significant difference was determined to have occurred when p<0.05.
Another assay examined the effect pre-incubating unstimulated splenocytes with test compounds at 10 μM for 24 hours, removing the compounds and then assessing their ability to respond to mitogenic stimulation as described for the previous assay. Cell numbers were assessed after the 24 hr pre-incubation using MTT, and equal numbers of cells/well plated into 96 well plates as usual.

In a further data set the test system is TXB2 synthesis. Description: TXB2 synthesis in human monocytes incubated with LPS. Type of data set: cell-based. The following applies: LPS 200 ng/mL, 18 hrs, dose responsive. As to the method:
Human peripheral blood monocytes (from three separate individuals) were isolated from buffy coats by lymphoprep gradient separation of mononuclear cells followed by counter-current centrifugal elutriation (Demasi et al. 2000). The test compounds were dissolved in DMSO and added to fresh monocytes After 30 min, LPS was added to achieve a final concentration of 200 ng/mL. After incubation for 18 hrs at 37° C. in 5% CO2, supernatants were removed and PGE2, TXB2 (the stable hydrolysis product of TXA2) and TNFα production were measured by radioimmunoassay (RIA).

The test system of another data set is HCT-15 (Colorectal). Description: In vitro cytotoxicity, MTT proliferation assay, HCT-15. Type of data set: cell-based, human. Particulars: Homo sapiens; Colorectal HCT-15. Here is the method: as §1, §2, §3
The test system of data set [1] is RK-13 (rabbit kidney) cells. In words: Normal cell toxicity, MTT proliferation assay, rabbit kidney cells. It is filed as cell-based. Particulars: Oryctolagus cuniculus, 24 hrs. As to the method: Neonatal foreskin fibroblasts (NFF) were a gift from Dr. Peter Parsons (Queensland Institute of Medical Research). RK-13 (rabbit kidney) cells were obtained from Miller Whalley (Macquarie University). Both cell types were cultured in RPMI supplemented with 10% FCS (CSL, Australia), penicillin (100 U/ml), streptomycin ([…]), L-glutamine (2 mM) and sodium bicarbonate (1.2 g/L), and cultured at 37° C. in a humidified atmosphere of 5% CO2.
as §3

In the next data set the test system is MM200 (Melanoma). In words: In vitro cytotoxicity, MTT proliferation assay, MM200. It is filed as cell-based, human. Particulars: Homo sapiens. Here is the method: as §1, §2, §3
Data set [2] is described as follows: Oral pharmacokinetics in mice. The following applies: 50 mg/kg. It is filed as in vivo, female BALB/c mice. As to the method: 4,9-Dihydroxy-14,15-dimethoxy-12a-(3′,4′-dimethoxyphenyl)-3,10-dimethyl-2,11-dioxa-(1H,12H)-6b,6c,12a,16b-tetrahydronaphtho[1,2-g]chrysene (2) from Example 6.1 was prepared as homogenous suspensions in 1% CMC (m:v, water). The Cpd. 2 formulation was delivered orally by gavage to female BALB/c mice at a dosage of 50 mg/kg. Three animals were allocated to each time point (15 min, 30 min, 1 hr, 4 hr and 24 hr). At each respective time point, animals were euthanased by cervical dislocation and blood collected. Free Cpd.

Another data set deals with thoracic aorta. Description: Aortic ring contractility induced by noradrenaline. Also on record: species or system Male Sprague-Dawley rats. The following applies: in presence of Cpd. 2 1 μg/ml; 1.94±0.35 vs. 2.09±0.23, p>0.05, no effect; n=6 rings. As to the method: Male Sprague-Dawley rats (250±50 g) were euthanased with 80% CO2 and 20% O2. The thoracic aorta was excised and quickly mounted in organ-baths as described (Chin-Dusting et al, 2001). Full concentration-contractile curves were obtained to noradrenaline ([…]) in the absence and presence of Cpd. 2 (1 μg/ml). Experiments were repeated in n=6 different rings from 6 different animals.

Another data set has as its system PC3 (Prostate). In words: In vitro cytotoxicity, MTT proliferation assay, PC3. It is filed as cell-based, human. The following applies: Homo sapiens. Here is the method: as §1, §2, §3

For `COc1ccc(C23COc4c(ccc(O)c4C)C2C2c4ccc(O)c(C)c4OCC2c2cc(OC)c(OC)cc23)cc1OC` (centres unmarked) [Cpd. 2, 4,9-Dihydroxy-14,15-dimethoxy-12a-(3′,4′-dimethoxyphenyl)-3,10-dimethyl-2,11-dioxa-(1H,12H)-6b,6c,12a,16b-tetrahydronaphtho[1,2-g]chrysene], the 50% inhibitory concentration (IC50) in the data set with MM96L (Melanoma) was found to be 6.8 µM; in the data set with HCT-15 (Colorectal) it was 54.7 ± 28 µM; in data set [1], 36 ± 2.7 µM; with MM200 (Melanoma), 6.5 µM; with PC3 (Prostate), 7.36 ± 1.35 µM. Further, in the data set on unstimulated splenocytes, the “Splenocyte viability following three days' culture in the absence of mitogen” value is “significantly reduced”. In addition, the “reduction in cell numbers compared with vehicle alone” value in the data set with unstimulated splenocytes is 55%. For the same compound, the “proliferative response to ConA after pre-incubation” value in the data set with unstimulated splenocytes (compound removed) is reported as “significantly less”. Besides, the “effect on TXB2 synthesis” value with TXB2 synthesis was “inhibited”. For the same compound, the concentration at 15 min in data set [2] (female, BALB/c, mouse, blood, oral gavage, Time 0.25 (15 min), read-out: Free concentration in blood) is 1.33 µM. Moreover, the concentration at 30 min in data set [2] (female, BALB/c, mouse, blood, oral gavage, Time 0.5 (30 min), read-out: Free concentration in blood) was found to be 4.93 µM. Also, in data set [2] (female, BALB/c, mouse, blood, oral gavage, Time 1 (1 hr), read-out: Free concentration in blood), the concentration at 1 h worked out at 6.76 µM. Further, the concentration at 4 h in [2] (female, BALB/c, mouse, blood, oral gavage, Time 4 (4 hr), read-out: Free concentration in blood) amounted to 6.31 µM. For the same compound, the concentration at 24 h in [2] (female, BALB/c, mouse, blood, oral gavage, Time 24 (24 hr), read-out: Free concentration in blood) is 1.15 µM. Also, in data set [2] (oral), the “half-life compared to dehydroequol” value is “superior half-life at times up to 4 hours compared to dehydroequol”. Further, the “rate of conjugation compared to dehydroequol” value in [2] (oral) is recorded as “slow rate of conjugation compared to dehydroequol”. Besides, the “maximal contractile response to noradrenaline” value in the data set on thoracic aorta is listed as 2.09±0.23.
